Assays:
GDP-loaded KRAS G12D = GDP-loaded KRAS G12D (Homo sapiens (Human), UniProt P01116, G12D); test: KRAS G12D (GDP) biochemical assay (TR-FRET probe displacement); assay type: binding; conditions: 2 hours
How it was run: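 TR-FRET probe displacement: 1:3 DMSO serial dilutions pre-incubated 30 min with GDP-bound KRAS G12D, followed by Eu-streptavidin/probe for 2 h at room temperature (Hepes pH 7.4, NaCl, MgCl2, Tween-20 buffer). IC50 defined as concentration halving TR-FRET ratio, from sigmoidal dose-response fit.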

GP2D (KRAS G12D) cells = test: 2D cell viability assay (CellTiter-Glo); assay type: cell-based; conditions: GP2d, 96 h, 4 days
How it was run: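 Viability was read by CellTiter-Glo after 4 days at 37 °C of 2D culture of KRAS G12D GP2D cells (1000/well, RPMI, 10% FBS) on pre-spotted threefold compound dilutions. EC50 was fitted with a sigmoidal dose-response model as the point of half-maximal luminescence loss.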

AsPC-1 (KRAS G12D) cells = test: 3D cell viability assay (spheroids, CellTiter-Glo 3D); assay type: cell-based; conditions: Homo sapiens, ASPC1, 96 h, AsPC-1 cells, 3D spheroids, 4 days
How it was run: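 AsPC-1 cells (1000/well) in DMEM with 10% FBS formed spheroids over 3 days at 37 °C in ultra-low attachment plates, then were treated with 1:3 serial dilutions for 4 days. Viability read by CellTiter-Glo 3D luminescence; EC50 as concentration giving 50% signal decrease, sigmoidal fit.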

Sequence of GDP-loaded KRAS G12D (P01116-2 other isoform, or with tags, fused parts or gaps G12D): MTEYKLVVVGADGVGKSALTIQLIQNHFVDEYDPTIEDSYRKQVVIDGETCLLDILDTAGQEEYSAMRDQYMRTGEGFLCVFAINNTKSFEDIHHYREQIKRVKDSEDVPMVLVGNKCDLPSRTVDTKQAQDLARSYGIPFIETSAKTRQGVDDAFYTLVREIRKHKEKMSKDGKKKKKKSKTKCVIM

Row | SMILES | IC50 (GDP-loaded KRAS G12D) [nM] | EC50 (GP2D (KRAS G12D) cells) [nM] | EC50 (AsPC-1 (KRAS G12D) cells) [nM]
1 | C#Cc1c(F)ccc2cc(O)cc(-c3nc4c5c(nc(OC[C@@]67CCCN6C[C@@]6(CC6(F)F)C7)nc5c3F)N3C[C@H]5CC[C@H](N5)[C@H]3CC4)c12 [Example 122, 4-((5aR,6S,9R)-12-(((1S,7a'S)-2,2-difluorodihydro-1′H,3′H-spiro[cyclopropane-1,2′-pyrrolizin]-7a′(5′H)-yl)methoxy)-1-fluoro-4,5,5a,6,7,8,9,10-octahydro-3,10a,11,13,14-pentaaza[6,9]methanonaphtho[1,8-ab]heptalen-2-yl)-5-ethynyl-6-fluoronaphthalen-2-ol] | < 0.1 | 0.1 | 2.9
2 | C#Cc1c(F)ccc2cc(O)cc(-c3nc4c5c(nc(OC[C@@]67CCCN6C[C@H](F)C7)nc5c3F)N3C[C@H]5CC[C@H](N5)[C@H]3CCO4)c12 [Example 123, 5-ethynyl-6-fluoro-4-((6aR,7S,10R)-1-fluoro-13-(((2R,7aS)-2-fluorotetrahydro-1H-pyrrolizin-7a(5H)-yl)methoxy)-5,6,6a,7,8,9,10,11-octahydro-4-oxa-3,11a,12,14,15-pentaaza-7,10-methanocyclohepta[4,5]cycloocta[1,2,3-de]naphthalen-2-yl)naphthalen-2-ol] | < 0.1 | 0.5 | 3
3 | C#Cc1c(F)ccc2cccc(-c3nc4c5c(nc(OC[C@@]67CCCN6C[C@H](F)C7)nc5c3F)N3C[C@H]5CC[C@H](N5)[C@H]3CCO4)c12 [Example 124, (6aR,7S,10R)-2-(8-ethynyl-7-fluoronaphthalen-1-yl)-1-fluoro-13-(((2R,7aS)-2-fluorotetrahydro-1H-pyrrolizin-7a(5H)-yl)methoxy)-5,6,6a,7,8,9,10,11-octahydro-4-oxa-3,11a,12,14,15-pentaaza-7,10-methanocyclohepta[4,5]cycloocta[1,2,3-de]naphthalene] | 0.5 | 26 | 81
4 | CCc1c(F)ccc2cc(O)cc(-c3cc4c5c(nc(OC[C@@]67CCCN6C[C@H](F)C7)nc5c3F)N3C[C@H]5CC[C@H](N5)[C@H]3CC4)c12 [Example 128, 5-ethyl-6-fluoro-4-((1S,4R,14aR)-10-fluoro-8-(((2R,7aS)-2-fluorotetrahydro-1H-pyrrolizin-7a(5H)-yl)methoxy)-1,2,3,4,5,13,14,14a-octahydro-1,4-epiminoazepino[1′,2′:1,7]azepino[2,3,4-de]quinazolin-11-yl)naphthalen-2-ol] | 0.2 | 4.1 | 59
5 | C#Cc1c(F)ccc2cc(O)cc(-c3nc4c5c(nc(OC[C@@]67CCCN6C[C@H](F)C7)nc5c3F)N3C[C@H]5CC[C@H](N5)[C@@H]3CCC4)c12 [Example 132, 5-ethynyl-6-fluoro-4-((6aS,7S,10R)-1-fluoro-13-(((2R,7aS)-2-fluorotetrahydro-1H-pyrrolizin-7a(5H)-yl)methoxy)-5,6,6a,7,8,9,10,11-octahydro-4H-3,11a,12,14,15-pentaaza-7,10-methanocyclohepta[4,5]cycloocta[1,2,3-de]naphthalen-2-yl)naphthalen-2-ol] | 0.2 | 2.2 | 50
6 | C#Cc1c(F)ccc2cc(O)cc(-c3nc4c5c(nc(OC[C@@]67CCCN6CC(OC(F)(F)F)C7)nc5c3F)N3C[C@H]5CC[C@H](N5)[C@H]3CC4)c12 (stereo partly drawn) [Example 139, 5-ethynyl-6-fluoro-4-((5aR,6S,9R)-1-fluoro-12-((cis-2-(trifluoromethoxy)tetrahydro-1H-pyrrolizin-7a(5H)-yl)methoxy)-4,5,5a,6,7,8,9,10-octahydro-3,10a,11,13,14-pentaaza-6,9-methanonaphtho[1,8-ab]heptalen-2-yl)naphthalen-2-ol] | 0.1 | 0.6 | 4.2
